Source: patent US20190136188A1, “4HPR AND ITS USE IN THE CULTURING OF HEMATOPOIETIC STEM CELLS” (UNIVERSITY HEALTH NETWORK, priority 2016, published 2019)

Assays:
[1] = system: lin- CB cells; test: 8 day ex vivo expansion culture of lin- CB, flow cytometry; type: cell-based, human
From the text: (§1) (A) Experimental scheme (B) Representative FACS analysis data of in vitro culture for 16 HSC dose time course (n=3). The number of (C) viable cells, (D) CD15+ myeloid cells, (E) GlyA+ erythroid cells, and (F) CD34+ primitive cells measured for the 16 LTRC dose with HTS flow cytometry analysis at day 8 post-treatment for vehicle control or 4HPR prior to xenotransplantation (n=5 biological replicates, 4 in technical triplicate, marked with different symbols). (G) Human CD45+ engraftment at 16 weeks post transplant in injected femur (n=4, 5 mice/biological experiment). Lineage analysis of control or 4HPR transplanted mice from FIG. 5G for (H) B lymphoid, (I) myeloid, (J) erythroid, and (K) primitive CD34+ at the 16 LTRC dose. (L) CD45+ cells were isolated from 5 biological experiments of the 16 LTRC dose primary mice and transplanted at limiting doses into secondary recipients for 16 weeks. Human CD45+ marking of >0.1% was considered positive for secondary engraftment. Limiting dilutation analysis was performed using ELDA software and the long-term repopulating cell (LTRC) frequency for each biological replicate plotted and the average LTRC frequency calculated.
(A) Representative flow cytometry analysis of the primitive hierarchy within the CD34+ fraction of day 8 cultured lin− CB cells after the indicated treatments for CD90 and CD45RA, n=4. B) The distribution of cultured CD34+CD90+CD45RA− (cHSC), CD34+CD90−CD45RA− (cMPP), and […] for the indicated conditions at day 8 of ex vivo culture following CD34 enrichment. Statistical significance assayed through unpaired t-test relative to vehicle control (Ctrl). The relative number of colonies resulting from (C) HSC or (D) MPP grown in methylcellulose CFC assays in the presence of vehicle control (−) or the indicated combination of 2 uM 4HPR, or 35 nM UM171 or 0.5 uM SR1 at 10 days. Statistical significance is calculated via unpaired t-test relative to ctrl (black) or to the presence of absence of 4HPR treatment for UM171 or SR1.
(§2) (A) The number of cells following 8 days of ex vivo culture at the 16 LTRC dose grown as in FIG. 5A for the indicated drug treatments (n=2). […] (2 biological replicates) (E) CD45+ cells were isolated from 2 biological experiments of the 16 LTRC dose primary mice and transplanted at limiting doses into secondary recipients for 16 weeks. Human CD45+ marking of >0.01% was considered positive for secondary engraftment. Limiting dilutation analysis was performed using ELDA software and the long-term repopulating cell (LTRC) frequency for each biological replicate plotted and the average LTRC frequency calculated.
To determine if 4HPR preserves functional HSC in CB liquid culture, we devised an experimental protocol to test the effect of 4HPR treatment in short-term ex vivo expansion culture on repopulation in serial NSG xenotransplantation to functionally read out LT-HSC (FIG. 5A). Briefly, lin− CB (enriched for CD34+) is cultured ex vivo in an in vitro limiting dilution assay (LDA) fashion based on 3 initial cell doses with high (16 functional HSC or LTRC), medium (3.2 LTRC) and limiting (0.65 LTRC) in xenotransplantation. All expanded cells are unbiasly transplanted via intrafemoral injection into NSG mice after 8 days of culture where drug is added every 2 day and reconstitution is assayed 16 weeks following transplantation. […] Human CD45+ cells are isolated from primary mice transplanted with the 16 LTRC dose and serially transplanted in LDA fashion to enumerate functional HSC in the gold-standard for long-term repopulating cell (LTRC). Remarkably, 4HPR treated cells show a 3 fold increase in SRC over control treatment through 32 weeks of xenotransplantation with an average LTRC frequency of 1e6 CD45+ cells (FIG. 5L, n=5, p=0.02). […] Thus, 4HPR acts to preserve LT-HSC function in ex vivo expansion despite limiting total CD34+ cells during culture. […]

[2] = system: long-term repopulating cell (LTRC) in NSG mice; test: Serial (secondary) transplantation limiting dilution analysis, LTRC frequency; type: in vivo
From the text: as §1, §2
To determine if 4HPR preserves functional HSC in CB liquid culture, we devised an experimental protocol to test the effect of 4HPR treatment in short-term ex vivo expansion culture on repopulation in serial NSG xenotransplantation to functionally read out LT-HSC (FIG. 5A). […]

[3] = system: lin- CB cells; test: RNA-sequencing gene set enrichment; type: cell-based, human; settings: 4HPR vs Ctrl
From the text: RNA from 3 pools of Lin− CB cells treated with vehicle control, 4HPR, UM171+SR1 or the triple combination of 4HPR+UM171+SR1 for 2 days were subjected to RNA-sequencing without amplification on the Illumina HiSeq 2500. (A) Functional enrichment map of gene sets enriched (red) by 4HPR treatment including or enriched by Ctrl treatment (blue) at day 2.
To elucidate the genetic pathways enriched by 4HPR treatment in human CB that may contribute to preserving HSC function in ex vivo expansion alone or in combination with UM171 and SR1, we performed RNA-sequencing of 3 pools of lin-CB at day 2 and day 4 following treatment with all four treatment groups. To avoid amplification bias, RNA-seq was performed on samples without amplification. […] The latter is known to be regulated by autophagy (Singh, Nature, 2009).

[4] = 8 days culture, 4HPR vs vehicle control

CC1=C(/C=C/C(C)=C/C=C/C(C)=C/C(=O)Nc2ccc(O)cc2)C(C)(C)CCC1 [4HPR, N-(4hydroxyphenyl)retinamide]
erythroid differentiation in culture [1, 4]: decreased erythroid differentiation | immunophenotypic CD34+ cells in culture [1, 4]: fewer immunophenotypic CD34+ cells | myeloid differentiation in culture [1, 4]: enhanced myeloid differentiation | cHSC in the CD34 compartment ([1]; day 8, relative to control): trends to increasing cHSC | cMPP in the CD34 compartment ([1]; day 8, relative to control): increasing cMPP | percentage of cProg cells in the CD34 compartment ([1]; day 8, relative to control): significantly limits the percentage of (cProg) cells | formation of cProg cells ([1]; lin- CB as well as HSC and MPP, dominant over UM171 or SR1 singularly and in combination): limits the formation of cProg cells | frequency of LT-HSC ([2]; 4HPR added to SR1+UM171 treatment compared to SR1+UM171 treatment alone): doubled | average LTRC frequency ([2]; 4HPR treated cells, through 32 weeks of xenotransplantation): 1e6 CD45+ cells | increase in SRC over control treatment ([2]; through 32 weeks of xenotransplantation, n=5, p=0.02): 3 fold | ER stress and UPR gene sets [3]: upregulates ER stress and UPR gene sets | autophagy gene sets [3]: enriched for autophagy gene sets including mitophagy | ceramide/sphingolipid biosynthesis gene sets [3]: enrichment of ceramide/sphingolipid biosynthesis gene sets | cholesterol/sterol biosynthetic pathways [3]: decrease in cholesterol/sterol biosythetic pathways
